Here are results for four compounds from paper PMC11413503, “SCR‐7952, a highly selective MAT2A inhibitor, demonstrates synergistic antitumor activities in combination with the S‐adenosylmethionine‐competitive or the methylthioadenosine‐cooperative protein arginine methyltransferase 5 inhibitors in methylthioadenosine phosphorylase‐deleted tumors” (MedComm, 2024).

The subject of series [1] is SDMA. Description: Immunoblot of SDMA (PRMT5-dependent mark). The class given is cell-based. The settings on record: 96 h, HCT116 MTAP−/− cells. Background: A western blot detects proteins with antibodies after separation by electrophoresis.
The test system of series [2] is FANCA. Description: RT-PCR of FANCA and DI-containing transcripts. In kind it is cell-based. The settings on record: 72 h.
For series [3], the system named is HCT116 MTAP−/− xenograft. Description: Xenograft combination treatment study. In kind it is in vivo, mice. The settings on record: JNJ-64619178 1.0 mg/kg alone. The method, then: (§1) Subcutaneous injections of HCT116 MTAP ^−/− cells were performed (5 × 10^6 cells in 100 µL) into Nu/Nu female mice. Mice were observed daily for the development of tumors. Six days after tumor implantation, mice were randomly distributed into different groups. SCR‐7952, AG‐270, JNJ‐64619178, or vehicle (water with 5% N‐methylpyrrolidone and 10% solutol HS‐15) were daily administrated by oral gavage. Tumor volumes and body weights were recorded three times per week. Tumor volumes were measured in two dimensions using a caliper, and the volume was expressed in mm^3 using the formula: V = (L × W × W)/2, where V is tumor volume, L is tumor length (the longest tumor dimension), and W is tumor width (perpendicular to L). The tumor growth inhibition rate (TGI%) of each dosing group was calculated according to the following formula: %TGI = (1 − (V t(treatment group) − V 0(treatment group))/(V t(vehicle group) − V 0(vehicle group))) × 100%, where V t is average tumor volume of a dosing group on a specific day, V 0 is average tumor volume of a dosing group on the initial day. At the end of the study, plasma and tumor tissues were collected and stored at −80°C for further measurement.

In series [4] the test system is SDMA. Kind of series: Tumor SDMA levels in combination xenograft study. The class given is in vivo, mice. The settings on record: JNJ-64619178 1.0 mg/kg alone.
For series [5], the system named is HCT116 MTAP−/− cells. Description: Intracellular SAM inhibition assay. In kind it is cell-based. The settings on record: Homo sapiens, HCT-116, 6 h, read-out: IC50, cellular SAM levels. The protocol:
MAT2A inhibition in the cellular environment was monitored by measurement of the abundance of its product SAM in HCT116 MTAP ^−/− cells. HCT116 MTAP ^−/− cells were plated in 96‐well cell culture plates at 50,000 cells per well and allowed to attach overnight at 37°C in 5% CO2. Compounds were added in a dose–response format to generate a 10‐point dose–response curve. Doses were started at a 10 µM top concentration with 1:5 serial dilution. After 6 h of incubation, the medium was removed and cells were extracted with 50% methanol containing 1 M acetic acid for SAM metabolite measurement by UPLC‐MS/MS.
The standard SAM solution was prepared in a surrogate matrix of 50% methanol containing 1 M acetic acid with a concentration range of 3–1000 ng/mL. The quality control sample was prepared in the same surrogate matrix. SAM‐d 3 was used as the internal standard (IS). A Waters UPLC system coupled with a SCIEX Triple Quad™ 6500^+ mass spectrometer […] was used to analyze the samples. Samples were separated on an ACQUITY UPLC® BEH amide column (2.1 × 50 mm, 1.7 µm). The mobile phase consisted of 5% acetonitrile containing 5 mM NH4OAc and 1% (v/v) formic acid (A) and 95% acetonitrile containing 5 mM NH4OAc and 1% (v/v) formic acid (B). […] SAM and SAM‐d 3 were detected with multiple‐reaction monitoring of a mass transition pair at m/z 399.2/250.2 and […], respectively.

Series [6] relates to A549. Description: Proliferation assay (CellTiter-Glo). The settings on record: Homo sapiens, A549, 144 h; MTAP-deleted, 6-day; read-out: IC50, anti-proliferation A549. In kind it is cell-based. The method, then: (§2) HCT116 colon carcinoma parental (WT) cells with MTAP ^−/− isogenic clone were established by KYinno Biotechnology Co., Ltd. (Beijing, China). A549, MIA PaCa‐2, and WI‐38 cell lines were obtained from ATCC. NCI‐H838 was obtained from Cobioer Biosciences. HCT116 WT and KO MTAP cells were cultured in McCoy's 5A media containing 10% FBS. A549 cells were cultured in DMEM media containing 10% FBS. MIA PaCa‐2 cells were cultured in DMEM media containing 10% FBS and 2.5% horse serum. NCI‐H838 cells were cultured in PRMI 1640 media containing 10% FBS. WI‐38 cells were cultured in EMEM media containing 10% FBS.
(§3) Cells were plated in 96‐well cell culture plates and allowed to attach overnight at 37°C in 5% CO2. Compounds diluted in DMSO were added to cells in a dose–response format for 6 days. The final concentration of DMSO was 0.1% in media. Cell proliferation was measured using CellTiter‐Glo Cell Viability Assay (Promega). The IC50 values were calculated using the GraphPad Prism 9. Drug combination effects were analyzed using Combenefit software.[45]
On the technique in general: In ATP-based viability assays light output follows the ATP content of the culture.

Series [7] deals with HCT116 MTAP−/− cells. Description: Proliferation assay (CellTiter-Glo). In kind it is cell-based. The settings on record: Homo sapiens, HCT-116, 144 h; 6-day treatment; read-out: IC50, anti-proliferation HCT116 MTAP−/−. The method, then: as §2, §3
In series [8] the test system is HCT116 WT cells. Kind of series: Proliferation assay (CellTiter-Glo). The class given is cell-based. The settings on record: Homo sapiens, HCT-116, 144 h; 6-day treatment; read-out: IC50, anti-proliferation HCT116 WT. The protocol: as §2, §3
Series [9] relates to MIA PaCa-2. Description: Proliferation assay (CellTiter-Glo). In kind it is cell-based. The settings on record: Homo sapiens, MIA PaCa-2, 144 h; MTAP-deleted, 6-day; read-out: IC50, anti-proliferation MIA PaCa-2. The protocol: as §2, §3
For series [10], the system named is NCI-H838. Description: Proliferation assay (CellTiter-Glo). The class given is cell-based. The settings on record: Homo sapiens, NCI-H838, 144 h; MTAP-deleted, 6-day; read-out: IC50, anti-proliferation NCI-H838. The protocol: as §2, §3
The subject of series [11] is WI-38 (human fetal lung fibroblast cells). Kind of series: Proliferation assay (CellTiter-Glo). The settings on record: Homo sapiens, WI-38, MTAP WT; read-out: IC50, anti-proliferation WI-38. In kind it is cell-based. The method, then:
as §2, §3

Series [12] relates to HCT116 MTAP−/− subcutaneous xenograft. Kind of series: Xenograft efficacy study, monotherapy. The class given is in vivo, mice. The settings on record: AG-270 200 mg/kg oral. The protocol:
An efficacy study in an HCT116 MTAP ^−/− subcutaneous xenograft mouse model was performed to evaluate the antitumor effect of SCR‐7952, with once daily (q.d.) oral dosing of 0.25, 0.5, 1.0, or 3.0 mg/kg, respectively.
Nu/Nu female mice (6–12 weeks old; Beijing Vital River Laboratory Animal Technology Co., Ltd.) were used for in vivo xenograft studies. All experimental procedures involving animals and their care were in accordance with the State Council Regulations for Laboratory Animal Management (Enacted in 1988) and approved by the Institutional Animal Care and Use Committee of Jiangsu Simcere Pharmaceutical Co., Ltd. (IACUC; Approval No. AP‐056).
as §1

Series [13] can be described thus: Plasma bilirubin in mice after oral treatment. In kind it is in vivo. The settings on record: AG-270 200 mg/kg, 2 h after final dose.
The nature of series [14]: Plasma pharmacokinetics after multiple administration in xenograft mice. The class given is in vivo. The settings on record: AG-270 200 mg/kg.
The test system of series [15] is UGT1A1. Also on record: method as in PMID 16765731. The settings on record: off-target activity of AG-270; cited from earlier work.
In series [16] the target is T1, MAT2A (Homo sapiens, UniProt P31153).
T1 construct: purchased Pharmaron 210405‐HWR‐20210429
T1 sequence (P31153 whole entry): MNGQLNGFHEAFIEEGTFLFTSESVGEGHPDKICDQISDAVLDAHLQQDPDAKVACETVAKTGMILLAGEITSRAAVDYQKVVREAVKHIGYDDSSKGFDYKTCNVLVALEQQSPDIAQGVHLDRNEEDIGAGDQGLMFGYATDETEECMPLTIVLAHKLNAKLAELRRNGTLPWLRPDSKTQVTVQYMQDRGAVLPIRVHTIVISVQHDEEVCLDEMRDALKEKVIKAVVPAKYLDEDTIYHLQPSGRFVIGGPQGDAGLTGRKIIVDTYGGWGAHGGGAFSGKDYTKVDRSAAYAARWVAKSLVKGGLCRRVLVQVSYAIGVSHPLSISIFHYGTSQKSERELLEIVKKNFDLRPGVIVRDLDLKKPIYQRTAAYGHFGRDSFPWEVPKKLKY
Details: method as in PMID 28553945. The settings on record: chemical assay; cited from earlier work.

The test system of series [17] is Huh-7 cells. Details: method as in PMID 28553945. The settings on record: read-out: IC50, antiproliferative effect on Huh-7 cells; cited from earlier work.
The subject of series [18] is mixed-lineage leukemia-rearranged (MLLr) leukemia. Also on record: method as in PMID 32456310. The settings on record: read-out: IC50, antiproliferation in MLLr leukemia; cited from earlier work.
Series [19] has as its target T1, MAT2A. Details: method as in earlier work. The settings on record: read-out: IC50, inhibition of MAT2A activity; cited from earlier work.
Series [20] relates to MTAP−/− cancer cells. Also on record: method as in earlier work. The settings on record: read-out: IC50, antiproliferation on MTAP−/− cancer cells; cited from earlier work.
For series [21], the system named is MTAP-deleted squamous NSCLC. Details: method as in NCT04794699. The settings on record: 3/4 patients, up to 50% circulating tumor DNA decrease; ref NCT04794699; cited from earlier work.

Values joined by “and” are separate entries in the source; they are usually repeats but may differ in a detail not shown here. Equal entries are not always repeated. Where two headings read alike, the source gives them in different places.

Regarding `Nc1nc2cc(CC[C@H]3C[C@@H](n4ccc5c(N)ncnc54)[C@H](O)[C@@H]3O)ccc2cc1Br` [JNJ‐64619178, reference compound], the “SDMA level (immunoblot)” value in series [1] is reported as “reduction of SDMA”. Also, in series [2], the “expression of FANCA DI-containing transcripts” value is listed as “increase of FANCA DI‐containing transcripts”. Also, in [3], the TGI – broadly, the reduction of tumour growth relative to the control group – worked out at 54.0%. Besides, the “tumor SDMA levels” value in [4] was “remarkable reduction”.
Take `COc1ccc(-c2c(Nc3ccccn3)[nH]c3c(C4=CCCCC4)c(-c4ccccc4)nn3c2=O)cc1` [AG‐270, reference compound]: the IC50 in series [5] was found to be 5.8 nM; in [6], 646 nM; in series [7] it was 300 nM; in series [8], 1220 nM; in series [9], 935 nM; in series [10], 93.9 nM. The IC50 in series [11] was 1410 nM; in series [15], 1100 nM. This compound also gave a TGI in series [12] of 52.0%. Also, the “effect on plasma total, direct and unconjugated bilirubin” value in series [13] was “remarkably increased”. Also, in series [14] (calculated), the AUC0-24h free drug is 3.829 µg·h/mL. Further, in [14] (Nu/Nu, mouse, oral, plasma, HCT116 MTAP−/− xenograft mice, read-out: AUC0-24h total), the AUC(0-t) was found to be 383 µg·h/mL.
Consider `CN(C)CCc1nnc2cc(-c3ccccc3)c3cc(Cl)ccc3n12` [PF‐9366], for which the IC50 is 420 nM in [16]; ~10000 nM and 10000 nM in series [17]; about 10000 nM in [18].
Regarding `Nc1nc(=O)n(-c2ccccc2Cl)c2nc(C(F)(F)F)ccc12` [IDE397], the IC50 was about 10 nM in [19] and about 20 nM in series [20]. In series [21], the molecular responses is listed as 75%.
